{
  "source": "ChEMBL document CHEMBL1201862",
  "about": "“PubChem BioAssay data set” (2004)",
  "key": {"[1]": {"target": "T1, Tyrosine-protein phosphatase non-receptor type 7 (Homo sapiens, UniProt P35236)", "T1 sequence (P35236 whole entry)": "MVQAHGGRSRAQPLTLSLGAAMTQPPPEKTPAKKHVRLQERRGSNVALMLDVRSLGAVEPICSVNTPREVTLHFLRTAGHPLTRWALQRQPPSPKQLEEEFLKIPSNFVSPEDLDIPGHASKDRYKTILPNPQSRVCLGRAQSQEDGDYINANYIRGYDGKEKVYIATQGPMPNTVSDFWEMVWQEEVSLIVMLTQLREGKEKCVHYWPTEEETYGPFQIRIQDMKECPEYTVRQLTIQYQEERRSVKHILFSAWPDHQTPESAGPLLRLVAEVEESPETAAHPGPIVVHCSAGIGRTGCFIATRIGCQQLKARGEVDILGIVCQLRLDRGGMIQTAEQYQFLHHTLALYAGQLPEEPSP", "assay": "inhibitors of human HePTP phosphatase, […], biochemical, absorbance, leukemia target (AID 521)", "type": "functional"}, "[2]": {"target": "Sphingosine 1-phosphate receptor 2 (Homo sapiens, UniProt O95136)", "sequence (O95136 whole entry)": "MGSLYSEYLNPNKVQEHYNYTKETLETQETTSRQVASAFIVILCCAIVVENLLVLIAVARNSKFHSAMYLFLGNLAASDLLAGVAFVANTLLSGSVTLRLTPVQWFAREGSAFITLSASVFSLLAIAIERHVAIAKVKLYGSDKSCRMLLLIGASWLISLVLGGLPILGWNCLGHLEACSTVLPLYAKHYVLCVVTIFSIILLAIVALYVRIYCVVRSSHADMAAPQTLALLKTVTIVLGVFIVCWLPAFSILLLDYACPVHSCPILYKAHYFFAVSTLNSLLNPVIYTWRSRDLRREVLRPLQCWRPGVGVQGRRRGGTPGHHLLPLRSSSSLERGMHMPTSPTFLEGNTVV", "assay": "Dose Response Cell Based Assay for Agonists of the S1P2 Receptor. [Related pubchem assays: 729, 736, 843 ]", "type": "functional"}, "HEK293": {"test_system": "HEK293", "assay": "HEK293T cell cytotoxicity, dose response, cytotoxicity control, ATP luminescence, cherry-pick samples (AID 687005);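 further: cells exposed to compound for 48 hours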", "type": "functional, cell-based", "details": "Homo sapiens"}, "[3]": {"assay": "HEK293 Cytotoxicity Assay Measured in Cell-Based System Using Plate Reader - 7071-01_Inhibitor_Dose_CherryPick_Activity_Set2.", "type": "functional"}, "Large T antigen": {"target": "Large T antigen (Simian virus 40, UniProt P03070)", "type": "functional, Betapolyomavirus macacae"}, "[4]": {"target": "Bifunctional protein GlmU (Mycobacterium tuberculosis, UniProt P9WMN3)", "sequence (P9WMN3 whole entry)": "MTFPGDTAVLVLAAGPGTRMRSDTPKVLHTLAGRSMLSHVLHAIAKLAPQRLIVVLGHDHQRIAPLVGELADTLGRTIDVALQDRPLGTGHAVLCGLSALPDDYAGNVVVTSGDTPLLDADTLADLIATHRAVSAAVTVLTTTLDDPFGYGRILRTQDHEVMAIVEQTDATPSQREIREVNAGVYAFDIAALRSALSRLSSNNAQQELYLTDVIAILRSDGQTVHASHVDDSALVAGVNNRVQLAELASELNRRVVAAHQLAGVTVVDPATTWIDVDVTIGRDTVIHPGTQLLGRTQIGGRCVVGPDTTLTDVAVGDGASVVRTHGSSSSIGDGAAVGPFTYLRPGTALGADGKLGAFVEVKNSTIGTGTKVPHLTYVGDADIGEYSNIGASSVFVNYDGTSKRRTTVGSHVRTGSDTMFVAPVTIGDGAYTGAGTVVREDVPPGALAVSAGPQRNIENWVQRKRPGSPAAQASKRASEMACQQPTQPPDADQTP", "assay": "Inhibitors of Mycobacterial Glucosamine-1-phosphate acetyl transferase (GlmU). Secondary screen.", "set-up": "species or system Mycobacterium tuberculosis H37Rv"}, "[5]": {"target": "1-phosphatidylinositol 4,5-bisphosphate phosphodiesterase gamma-1 (Homo sapiens, UniProt P19174)", "sequence (P19174 whole entry)": "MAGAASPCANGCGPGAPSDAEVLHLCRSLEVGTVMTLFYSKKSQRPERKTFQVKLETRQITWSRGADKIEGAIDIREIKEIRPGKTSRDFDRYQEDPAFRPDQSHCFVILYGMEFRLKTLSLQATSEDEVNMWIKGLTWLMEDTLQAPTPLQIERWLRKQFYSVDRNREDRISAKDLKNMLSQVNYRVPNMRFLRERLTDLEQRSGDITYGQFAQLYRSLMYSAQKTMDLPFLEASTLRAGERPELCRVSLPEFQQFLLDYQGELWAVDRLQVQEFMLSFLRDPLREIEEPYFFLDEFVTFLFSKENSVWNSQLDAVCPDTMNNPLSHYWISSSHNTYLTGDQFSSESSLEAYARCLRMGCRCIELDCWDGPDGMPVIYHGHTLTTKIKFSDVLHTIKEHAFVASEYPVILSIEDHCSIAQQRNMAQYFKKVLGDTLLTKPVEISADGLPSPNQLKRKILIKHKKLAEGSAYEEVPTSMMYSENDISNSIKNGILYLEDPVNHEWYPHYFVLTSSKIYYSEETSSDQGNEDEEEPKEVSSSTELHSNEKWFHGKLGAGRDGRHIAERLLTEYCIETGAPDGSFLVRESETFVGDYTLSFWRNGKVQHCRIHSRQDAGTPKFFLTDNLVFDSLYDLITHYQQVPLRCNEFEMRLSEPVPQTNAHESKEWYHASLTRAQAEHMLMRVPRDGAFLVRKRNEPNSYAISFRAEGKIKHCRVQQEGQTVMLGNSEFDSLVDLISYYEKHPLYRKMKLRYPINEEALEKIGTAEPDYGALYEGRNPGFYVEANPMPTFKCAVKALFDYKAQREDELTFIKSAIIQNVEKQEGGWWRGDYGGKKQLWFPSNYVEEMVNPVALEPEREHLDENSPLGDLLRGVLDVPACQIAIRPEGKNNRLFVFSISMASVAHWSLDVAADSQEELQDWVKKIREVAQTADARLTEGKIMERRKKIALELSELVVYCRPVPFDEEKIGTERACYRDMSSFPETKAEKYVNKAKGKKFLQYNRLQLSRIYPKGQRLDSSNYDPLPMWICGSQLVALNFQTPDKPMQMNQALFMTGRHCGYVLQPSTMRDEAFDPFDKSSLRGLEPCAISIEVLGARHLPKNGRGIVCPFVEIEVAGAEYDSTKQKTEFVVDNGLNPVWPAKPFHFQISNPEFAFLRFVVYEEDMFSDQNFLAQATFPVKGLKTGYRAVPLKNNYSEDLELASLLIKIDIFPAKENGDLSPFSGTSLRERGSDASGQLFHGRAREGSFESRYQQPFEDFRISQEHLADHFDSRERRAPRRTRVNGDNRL", "assay": "Counterscreen for inhibitors of phospholipase C isozymes (PLC-B3): Fluorescence-based biochemical high throughput dose response assay to identify inhibitors of phospholipase C isozymes (PLC-gamma1)."}, "[6]": {"target": "1-phosphatidylinositol 4,5-bisphosphate phosphodiesterase beta-3 (Homo sapiens, UniProt Q01970)", "sequence (Q01970 whole entry)": "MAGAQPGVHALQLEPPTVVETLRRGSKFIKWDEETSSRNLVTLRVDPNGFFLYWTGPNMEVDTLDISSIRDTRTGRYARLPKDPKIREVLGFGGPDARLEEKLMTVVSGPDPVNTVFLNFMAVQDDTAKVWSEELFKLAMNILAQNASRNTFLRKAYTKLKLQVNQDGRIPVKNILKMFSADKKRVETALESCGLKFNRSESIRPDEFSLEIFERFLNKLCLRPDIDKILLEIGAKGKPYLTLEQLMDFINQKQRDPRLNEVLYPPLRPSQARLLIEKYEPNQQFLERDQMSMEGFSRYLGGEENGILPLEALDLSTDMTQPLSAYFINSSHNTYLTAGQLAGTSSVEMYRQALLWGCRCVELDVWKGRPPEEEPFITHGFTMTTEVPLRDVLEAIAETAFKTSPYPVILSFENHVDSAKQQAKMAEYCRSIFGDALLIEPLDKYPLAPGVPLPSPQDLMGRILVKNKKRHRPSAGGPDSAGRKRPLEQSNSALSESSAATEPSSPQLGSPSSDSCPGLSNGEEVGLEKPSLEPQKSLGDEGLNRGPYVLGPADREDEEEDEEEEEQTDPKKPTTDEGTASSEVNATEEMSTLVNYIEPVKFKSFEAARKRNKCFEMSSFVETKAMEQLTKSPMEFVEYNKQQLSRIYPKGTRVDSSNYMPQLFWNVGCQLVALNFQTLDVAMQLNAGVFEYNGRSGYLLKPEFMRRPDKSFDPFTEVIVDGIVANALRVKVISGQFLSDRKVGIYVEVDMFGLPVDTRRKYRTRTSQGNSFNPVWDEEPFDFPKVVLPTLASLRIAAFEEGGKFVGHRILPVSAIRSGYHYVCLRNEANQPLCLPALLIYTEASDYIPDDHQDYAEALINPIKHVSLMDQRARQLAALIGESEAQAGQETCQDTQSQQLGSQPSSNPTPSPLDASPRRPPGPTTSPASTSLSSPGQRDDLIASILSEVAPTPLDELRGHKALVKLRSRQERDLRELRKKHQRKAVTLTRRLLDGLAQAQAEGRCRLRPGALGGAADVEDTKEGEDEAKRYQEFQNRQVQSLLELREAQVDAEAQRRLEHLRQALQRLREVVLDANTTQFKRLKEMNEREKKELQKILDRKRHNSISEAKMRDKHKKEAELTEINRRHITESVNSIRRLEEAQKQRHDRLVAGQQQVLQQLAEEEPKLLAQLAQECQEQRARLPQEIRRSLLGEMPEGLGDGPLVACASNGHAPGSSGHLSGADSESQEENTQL", "assay": "Fluorescence-based biochemical high throughput dose response assay to identify inhibitors of phospholipase C isozymes (PLC-B3)."}, "[7]": {"target": "E3 ubiquitin-protein ligase Mdm2 (Homo sapiens, UniProt Q00987)", "sequence (Q00987 whole entry)": "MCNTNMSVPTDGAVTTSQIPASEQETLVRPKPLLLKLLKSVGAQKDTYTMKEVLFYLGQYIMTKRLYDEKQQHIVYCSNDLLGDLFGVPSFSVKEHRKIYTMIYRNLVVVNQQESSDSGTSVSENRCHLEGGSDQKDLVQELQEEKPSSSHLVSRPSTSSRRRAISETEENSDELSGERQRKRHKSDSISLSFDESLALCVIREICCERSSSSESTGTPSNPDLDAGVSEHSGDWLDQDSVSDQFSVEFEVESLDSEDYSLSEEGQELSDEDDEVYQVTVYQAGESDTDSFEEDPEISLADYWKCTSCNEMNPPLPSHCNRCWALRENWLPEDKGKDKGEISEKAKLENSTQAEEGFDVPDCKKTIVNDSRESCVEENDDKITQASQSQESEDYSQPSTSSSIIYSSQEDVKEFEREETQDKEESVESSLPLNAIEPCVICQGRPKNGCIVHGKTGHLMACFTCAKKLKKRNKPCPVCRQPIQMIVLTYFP", "assay": "enhancers of MDM2-luciferase reporter signal, concentration-effect titration, project on inhibitors of MDM2 ubiquitin ligase, cellular assay, luminescent readout, 384-well plate format (AID 1394);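 further: MDM2 E3 inhibitors raise luminescence so EC50 is for signal enhancement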", "type": "functional"}, "[8]": {"test_system": "Streptococcus sp. 'group A'", "assay": "growth inhibition of control SK(-) GAS strain, dose response, counter-screen for streptokinase expression inhibitor project, luminescence, kanamycin, BacTiterGlo, confirmation (AID 1900)", "type": "functional, organism-based"}, "Streptokinase A": {"target": "T2, Streptokinase A (Streptococcus pyogenes serotype M1, UniProt P10520)", "T2 sequence (P10520 whole entry)": "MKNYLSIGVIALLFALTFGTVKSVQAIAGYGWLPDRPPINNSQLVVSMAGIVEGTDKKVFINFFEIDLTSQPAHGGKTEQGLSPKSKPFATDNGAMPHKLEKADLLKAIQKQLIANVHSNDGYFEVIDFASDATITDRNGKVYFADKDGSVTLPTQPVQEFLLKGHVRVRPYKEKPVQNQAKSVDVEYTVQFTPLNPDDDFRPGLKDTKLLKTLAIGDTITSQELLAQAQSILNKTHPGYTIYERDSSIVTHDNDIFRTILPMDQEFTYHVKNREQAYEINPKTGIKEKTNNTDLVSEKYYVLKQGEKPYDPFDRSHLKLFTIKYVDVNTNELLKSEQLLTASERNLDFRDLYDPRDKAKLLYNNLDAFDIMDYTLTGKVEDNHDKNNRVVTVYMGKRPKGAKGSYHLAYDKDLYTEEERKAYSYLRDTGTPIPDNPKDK", "assay": "S. pyogenes streptokinase expression inhibitors, potency, dose response, plasminogen activation absorbance, OD405 (AID 1914);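 further: secreted streptokinase activity via plasminogen activation per viability signal from cell pellet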", "type": "functional, Streptococcus pyogenes M1 GAS"}, "Streptococcus": {"test_system": "Streptococcus", "assay": "Group A Streptococcus viability loss, dose response, counter-screen for streptokinase expression inhibitor project, luminescence, BacTiterGlo (AID 1915);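 further: potency for reduction of bacterial viability or growth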", "type": "functional, organism-based"}, "H9c2": {"test_system": "H9c2", "assay": "cells", "type": "functional, cell-based", "details": "Rattus norvegicus, H9c2, Myocardium"}, "Transthyretin": {"target": "Transthyretin (Homo sapiens, UniProt P02766)", "assay": "Luminescence-based cell-based high throughput dose response assay to identify activators of Transthyretin (TTR) transcription.", "type": "functional"}, "[9]": {"target": "T3, Methionyl-tRNA synthetase, putative (Trypanosoma brucei brucei, UniProt Q38C91)", "T3 sequence (Q38C91 whole entry)": "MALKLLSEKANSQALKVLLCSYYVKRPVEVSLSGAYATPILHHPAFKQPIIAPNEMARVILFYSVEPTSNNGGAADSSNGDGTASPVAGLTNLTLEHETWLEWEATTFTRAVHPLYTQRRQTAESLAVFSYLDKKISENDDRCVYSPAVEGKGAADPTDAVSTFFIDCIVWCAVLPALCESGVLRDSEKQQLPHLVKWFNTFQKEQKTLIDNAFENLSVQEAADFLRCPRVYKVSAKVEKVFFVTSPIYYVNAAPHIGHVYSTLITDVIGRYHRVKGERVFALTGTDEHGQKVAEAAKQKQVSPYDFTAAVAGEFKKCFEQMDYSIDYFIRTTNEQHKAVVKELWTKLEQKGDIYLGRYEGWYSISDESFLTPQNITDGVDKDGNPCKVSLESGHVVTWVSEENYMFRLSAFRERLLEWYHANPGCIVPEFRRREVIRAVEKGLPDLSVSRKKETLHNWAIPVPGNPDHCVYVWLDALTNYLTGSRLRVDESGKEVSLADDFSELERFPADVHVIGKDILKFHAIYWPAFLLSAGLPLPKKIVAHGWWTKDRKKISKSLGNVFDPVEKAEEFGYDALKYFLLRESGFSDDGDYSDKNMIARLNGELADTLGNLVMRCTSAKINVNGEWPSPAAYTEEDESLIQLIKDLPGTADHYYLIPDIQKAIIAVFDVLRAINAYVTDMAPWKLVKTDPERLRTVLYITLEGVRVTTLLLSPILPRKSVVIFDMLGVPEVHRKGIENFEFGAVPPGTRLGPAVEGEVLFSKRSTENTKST", "type": "functional, Trypanosoma brucei brucei strain 927/4 GUTat10.1"}, "[10]": {"assay": "Counterscreen for inhibitors of Trypanosoma brucei methionyl tRNA synthetase (MetRS): Luminescence-based cell-based high throughput dose response assay to identify compounds that are cytotoxic to Jurkat human T lymphocyte cells.", "type": "functional"}, "[11]": {"target": "T3, Methionyl-tRNA synthetase, putative", "type": "functional, Trypanosoma brucei brucei strain 927/4 GUTat10.1", "remark": "listed apart in the source"}, "[12]": {"assay": "Late stage counterscreen for inhibitors of Trypanosoma brucei methionyl tRNA synthetase (MetRS): Luminescence-based cell-based high throughput dose response assay to identify compounds that are cytotoxic to Jurkat human T lymphocyte cells.", "type": "functional"}},
  "note": "Calls of active or inactive are those of the source.",
  "data": [
    {"compound": "Cc1ccc(-n2nnc3c(=O)n(CC(=O)NCc4ccco4)cnc32)cc1", "values": [
      {"measurement": "IC50", "setting": "[1]", "value": "> 100 µM (not active)"}
    ]},
    {"compound": "COc1cc2c(cc1OC)C1=C(C#N)CCC(=O)N1CC2", "values": [
      {"measurement": "EC50", "setting": "[2]", "value": "1.33 µM (active)"}
    ]},
    {"compound": "COc1ccc(-n2cc(CNCCc3nc(C)cc(C)n3)c(-c3ccccc3Cl)n2)cc1", "values": [
      {"measurement": "AC50", "setting": "HEK293", "value": "11.4 µM (active)"},
      {"measurement": "AC50", "setting": "[3]", "value": "11.4 µM (active)"}
    ]},
    {"compound": "COc1ccc(/C=C2/C(=O)NC(=O)N(Cc3ccco3)C2=O)cc1", "values": [
      {"measurement": "IC50", "setting": "Large T antigen", "value": "23.5 µM (active)"},
      {"measurement": "IC50", "setting": "[4]", "value": "1.79 µM (active)"}
    ]},
    {"compound": "NC(=O)CC(NC(=O)Cc1cccc2ccccc12)c1ccc(N2CCCCCC2)c([N+](=O)[O-])c1", "note": "(stereo not drawn)", "values": [
      {"measurement": "IC50", "setting": "[5]", "value": "> 122 µM (inactive)"},
      {"measurement": "IC50", "setting": "[6]", "value": "> 122 µM (inactive)"}
    ]},
    {"compound": "Cc1ccc(-c2nc3ccccc3c(=O)n2-c2cccnc2)cc1", "values": [
      {"measurement": "EC50", "setting": "[7]", "value": "54.5 µM (not active)"}
    ]},
    {"compound": "CCCNC(=O)c1ccc(N2CCC3(CC2)CC(c2ccccc2)=NO3)c(NC(=O)c2ccco2)c1", "values": [
      {"measurement": "EC50", "setting": "[8]", "value": "15.7 µM (active)"},
      {"measurement": "EC50", "setting": "Streptokinase A", "value": "> 150 µM (not active)"},
      {"measurement": "EC50", "setting": "Streptococcus", "value": "38.2 µM (active)"},
      {"measurement": "IC50", "setting": "H9c2", "value": "31 µM (inactive)"},
      {"measurement": "EC50", "setting": "Transthyretin", "value": "> 167 µM (inactive)"}
    ]},
    {"compound": "Clc1ccc(-c2nnc(SCc3nc4ccccc4[nH]3)o2)c(Cl)c1", "values": [
      {"measurement": "IC50", "setting": "[9]", "value": "0.802 µM (active)"},
      {"measurement": "IC50", "setting": "[10]", "value": "83.3 µM (inactive)"},
      {"measurement": "IC50", "setting": "[11]", "value": "0.401 µM (active)"},
      {"measurement": "IC50", "setting": "[12]", "value": "> 83.3 µM (inactive)"}
    ]}
  ]
}
